Measurements taken from patent US20240140938A1, “PREPARATION OF TETRAHYDROINDAZOLE DERIVATIVES AS NOVEL DIACYLGLYCERIDE O-ACYLTRANSFERASE 2 INHIBITORS” (MERCK SHARP & DOHME LLC, priority 2020, published 2024).

Target: human DGAT2 (hDGAT2) (Homo sapiens (Human), UniProt Q96PD7)
Experiment: DGAT2 Enzymatic Activity Assay
Type: biochemical
Settings: hDGAT2 Sf-9 membrane prep, 13C18-triolein product by LC/MS/MS
Method: Sf-9 insect cells were maintained in Grace's insect cell culture medium with 10% heated-inactivated fetal bovine serum, 1% Pluronic F-68 and 0.14 μg/ml Kanamycine sulfate at 27° C. in a shaker incubator. After infection with untagged baculovirus expressing human DGAT2 (hDGAT2) at multiplicity of infection (MOI) 3 for 48 hours, cells were harvested. Cell pellets were suspended in buffer containing 10 mM Tris-HCl pH 7.5, 1 mM EDTA, 250 mM sucrose and Complete Protease Inhibitor Cocktail (Sigma Aldrich), and sonicated on ice. Cell debris were removed by centrifugation at 2000×g for 15 minutes. Membrane fractions were isolated by ultracentrifugation (100,000×g), resuspended in the same buffer, and frozen (−80° C.) for later use. The protein concentration was determined with the Pierce™ BCA Protein Assay Kit (Thermo Fisher Scientific).
LC/MS/MS analyses were performed using Thermal Fisher's LX4-TSQ Vantage system. This system consists of an Agilent binary high-performance liquid chromatography (HPLC) pump and a TSQ Vantage triple quadrupole MS/MS instrument. For each sample, 2 μL samples from the top organic layer of in-plate liquid-liquid extraction were injected onto a Thermo Betabasic C4 column (2.1 mm×20 mm, 5 μm particle size). The samples were then eluted using the following conditions; mobile phase: Isopropanol: acetonitrile/10 mM ammonium formate=50/35/15 (v/v/v), flow rate: 0.8 mL/min, temperature: 25° C. Data was acquired in positive mode using a heated electrospray ionization (HESI) interface. […] The peak area was integrated by Xcalibur Quan software. The ratio between the ^13C18triolein generated in the reaction and spiked in internal standard ^13C21-triolein was used to generate percentage inhibition and IC50 values. Compound percentage inhibition was calculated by the following formula: Inhibition %=1−[(compound response−low control)/(high control−low control)]×100%.
DGAT2 activity was determined by measuring the amount of enzymatic product ^13C18-triolein (^13C-1,2,3-Tri(cis-9-octadecenoyl)glycerol) using the membrane prep mentioned above. The assay was carried out in ABgene 384-well assay plates in a final volume of 25 μL at rt.

[1] = 25 μM diolein, 5 μM 13C oleoyl-CoA

human DGAT2 (hDGAT2), sequence (Q96PD7 whole entry): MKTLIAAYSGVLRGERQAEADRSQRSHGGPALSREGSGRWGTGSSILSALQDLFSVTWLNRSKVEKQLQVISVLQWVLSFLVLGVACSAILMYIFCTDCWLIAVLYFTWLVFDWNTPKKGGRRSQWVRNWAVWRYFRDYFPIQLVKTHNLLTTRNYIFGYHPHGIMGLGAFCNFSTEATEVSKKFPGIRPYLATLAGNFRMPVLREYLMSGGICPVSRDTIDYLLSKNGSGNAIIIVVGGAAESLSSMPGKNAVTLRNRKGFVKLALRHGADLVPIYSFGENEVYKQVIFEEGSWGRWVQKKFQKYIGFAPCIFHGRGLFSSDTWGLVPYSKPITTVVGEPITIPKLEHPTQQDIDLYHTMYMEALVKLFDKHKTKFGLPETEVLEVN

Structure (SMILES) | IC50 [1] [nM] | IC50 (unit given as nm) [nM]
CC(C)n1nc(-c2cccc(OC(F)F)c2)c2c1CC(C(=O)NC1(C)CC(F)(F)C1)CO2 (racemic) [Example 124, N-(3,3-difluoro-1-methylcyclobutyl)-3-(3-(difluoromethoxy)phenyl)-1-isopropyl-1,5,6,7-tetrahydropyrano[3,2-c]pyrazole-6-carboxamide] | 56.4 | 
CC(C)n1nc(-c2cc(OCC(F)F)ncc2F)c2c1C[C@H](C(=O)NC1(C)CCS(=O)(=O)CC1)CC2 [Example 40, (R)-3-(2-(2,2-difluoroethoxy)-5-fluoropyridin-4-yl)-1-isopropyl-N-(4-methyl-1,1-dioxidotetrahydro-2H-thiopyran-4-yl)-4,5,6,7-tetrahydro-1H-indazole-6-carboxamide] | 4.6 | 
O=C(NC1(CO)CCC(F)(F)C1)[C@@H]1CCc2c(-c3cccc(OC(F)F)c3)nn(-c3ccc(F)cn3)c2C1 (single isomer, unassigned) [Example 8a] | 5 | 
CC1(NC(=O)C2CCc3c(-c4ccccc4Cl)nn(-c4ccc(F)cc4)c3C2)CCS(=O)(=O)C1 (stereo not shown) [Example 1, 3-(2-chlorophenyl)-1-(4-fluorophenyl)-N-(3-methyl-1,1-dioxidotetrahydrothiophen-3-yl)-4,5,6,7-tetrahydro-1H-indazole-6-carboxamide] |  | 37.9
CCOc1cc(-c2nn(C(C)C(C)(C)O)c3c2CC[C@@H](C(=O)N[C@@]2(C)CCS(=O)(=O)C2)C3)c(F)cn1 (single isomer, unassigned) [Example 108a] | 44.1 | 
CCOc1cc(-c2nn(C(C)C(F)(F)F)c3c2CC[C@@H](C(=O)NC2(C)CCS(=O)(=O)CC2)C3)c(F)cn1 (single isomer, unassigned) [Example 53b] | 10.3 | 
CC1(NC(=O)[C@@H]2CCc3c(-c4cccc(OC(F)F)c4)nn(-c4ccc(F)cn4)c3C2)CS(=O)(=O)C1 [Example 4, (R)-3-(3-(difluoromethoxy)phenyl)-1-(5-fluoropyridin-2-yl)-N-(3-methyl-1,1-dioxidothietan-3-yl)-4,5,6,7-tetrahydro-1H-indazole-6-carboxamide] | 5.1 | 
CC(C)n1nc(-c2cc(OC(F)F)ccc2F)c2c1C[C@H](C(=O)N[C@]1(C)CCS(=O)(=O)C1)CC2 [Example 29, (R)-3-(5-(difluoromethoxy)-2-fluorophenyl)-1-isopropyl-N-((R)-3-methyl-1,1-dioxidotetrahydrothiophen-3-yl)-4,5,6,7-tetrahydro-1H-indazole-6-carboxamide] | 60.1 | 
CC(C)n1nc(-c2cc(OC(F)F)ccc2F)c2c1C[C@H](C(=O)NC1(C#N)CCS(=O)(=O)CC1)CC2 [Example 52, (R)-N-(4-cyano-1,1-dioxidotetrahydro-2H-thiopyran-4-yl)-3-(5-(difluoromethoxy)-2-fluorophenyl)-1-isopropyl-4,5,6,7-tetrahydro-1H-indazole-6-carboxamide] | 4.7 | 
CC(C#N)n1nc(-c2cc(OC(F)F)ccc2F)c2c1C[C@H](C(=O)NC1(C)CS(=O)(=O)C1)CC2 (stereo partly drawn) [Example 79, (6R)-1-(1-cyanoethyl)-3-(5-(difluoromethoxy)-2-fluorophenyl)-N-(3-methyl-1,1-dioxidothietan-3-yl)-4,5,6,7-tetrahydro-1H-indazole-6-carboxamide] | 59.1 | 
CC1(NC(=O)[C@@H]2CCc3c(-c4cc(OC(F)F)ccc4F)nn(C4CCC4)c3C2)CS(=O)(=O)C1 [Example 57, (R)-1-cyclobutyl-3-(5-(difluoromethoxy)-2-fluorophenyl)-N-(3-methyl-1,1-dioxidothietan-3-yl)-4,5,6,7-tetrahydro-1H-indazole-6-carboxamide] | 22.8 | 
C[C@]1(NC(=O)[C@@H]2CCc3c(-c4cccc(OC(F)F)c4)nn(-c4ccc(F)cn4)c3C2)CCS(=O)(=O)C1 [Example 3, (R)-3-(3-(difluoromethoxy)phenyl)-1-(5-fluoropyridin-2-yl)-N-((S)-3-methyl-1,1-dioxidotetrahydrothiophen-3-yl)-4,5,6,7-tetrahydro-1H-indazole-6-carboxamide] | 4.9 | 
C[C@]1(NC(=O)[C@H]2Cc3c(c(-c4cccc(OC(F)F)c4)nn3C3CCOCC3)C(F)(F)C2)CCS(=O)(=O)C1 (single isomer, unassigned) [Example 117b] | 178 | 
CC(C)n1nc(-c2cccc(OC(F)F)c2)c2c1C[C@H](C(=O)NCCN1CCS(=O)(=O)CC1)CC2 [Example 70, (R)-3-(3-(difluoromethoxy)phenyl)-N-(2-(1,1-dioxidothiomorpholino)ethyl)-1-isopropyl-4,5,6,7-tetrahydro-1H-indazole-6-carboxamide] | 18000 | 
CC(n1nc(-c2cc(OC(F)F)ccc2F)c2c1C[C@H](C(=O)NC1(C)CS(=O)(=O)C1)CC2)C(C)(C)O (single isomer, unassigned) [Example 110b] | 243 | 
CC(C)(NC(=O)[C@@H]1CCc2c(-c3cccc(OC(F)F)c3)nn(C3CCOCC3)c2C1)c1ccc(C(F)(F)F)nc1 [Example 27, (R)-3-(3-(difluoromethoxy)phenyl)-1-(tetrahydro-2H-pyran-4-yl)-N-(2-(6-(trifluoromethyl)pyridin-3-yl)propan-2-yl)-4,5,6,7-tetrahydro-1H-indazole-6-carboxamide] | 128 | 
CC(C)n1nc(-c2cccc(CC#N)c2)c2c1C[C@H](C(=O)NC1(C)CS(=O)(=O)C1)CC2 [Example 94, (R)-3-(3-(cyanomethyl)phenyl)-1-isopropyl-N-(3-methyl-1,1-dioxidothietan-3-yl)-4,5,6,7-tetrahydro-1H-indazole-6-carboxamide] | > 10000 | 
CCc1ccc(F)c(-c2nn(C(C)C)c3c2CC[C@@H](C(=O)NC2(C)CS(=O)(=O)C2)C3)c1 [Example 100, (R)-3-(5-ethyl-2-fluorophenyl)-1-isopropyl-N-(3-methyl-1,1-dioxidothietan-3-yl)-4,5,6,7-tetrahydro-1H-indazole-6-carboxamide] | 158 | 
Cc1ncc(OC(F)F)cc1-c1nn(C(C)C)c2c1CC[C@@H](C(=O)NC1(C)CC(F)(F)C1)C2 [Example 89, (R)-N-(3,3-difluoro-1-methylcyclobutyl)-3-(5-(difluoromethoxy)-2-methylpyridin-3-yl)-1-isopropyl-4,5,6,7-tetrahydro-1H-indazole-6-carboxamide] | 318 | 
CC1(NC(=O)C2Cc3c(c(-c4cccc(OC(F)F)c4)nn3C3CCOCC3)C(F)(F)C2)CCS(=O)(=O)C1 (stereo not shown) [Example 117, 3-(3-(difluoromethoxy)phenyl)-4,4-difluoro-N-(3-methyl-1,1-dioxidotetrahydrothiophen-3-yl)-1-(tetrahydro-2H-pyran-4-yl)-4,5,6,7-tetrahydro-1H-indazole-6-carboxamide] |  | 499
CC(C)n1nc(-c2cncc(OC(F)F)c2)c2c1C[C@H](C(=O)NC1(C)CCS(=O)(=O)CC1)CC2 [Example 56, (R)-3-(5-(difluoromethoxy)pyridin-3-yl)-1-isopropyl-N-(4-methyl-1,1-dioxidotetrahydro-2H-thiopyran-4-yl)-4,5,6,7-tetrahydro-1H-indazole-6-carboxamide] | 414 | 
CC1(NC(=O)[C@@H]2CCc3c(-c4cccc(OC(F)F)c4)nn(-c4ncc(F)cc4F)c3C2)CS(=O)(=O)C1 [Example 9, (R)-3-(3-(difluoromethoxy)phenyl)-1-(3,5-difluoropyridin-2-yl)-N-(3-methyl-1,1-dioxidothietan-3-yl)-4,5,6,7-tetrahydro-1H-indazole-6-carboxamide] | 10.2 | 
C[C@]1(NC(=O)C2CCc3c(-c4cccc(OC(F)F)c4)nn(-c4ncc(Cl)cn4)c3C2)CCS(=O)(=O)C1 (stereo partly drawn) [Example 10, 1-(5-chloropyrimidin-2-yl)-3-(3-(difluoromethoxy)phenyl)-N-((S)-3-methyl-1,1-dioxidotetrahydrothiophen-3-yl)-4,5,6,7-tetrahydro-1H-indazole-6-carboxamide] | 37 | 
CCOc1cc(F)c(F)c(-c2nn(C(C)C)c3c2CC[C@@H](C(=O)NC2(C)CS(=O)(=O)C2)C3)c1 [Example 87, (R)-3-(5-ethoxy-2,3-difluorophenyl)-1-isopropyl-N-(3-methyl-1,1-dioxidothietan-3-yl)-4,5,6,7-tetrahydro-1H-indazole-6-carboxamide] | 3.6 | 
CC(C)n1nc(-c2cc(OC(F)F)ccc2F)c2c1CC(C(=O)N[C@]1(C)CCS(=O)(=O)C1)CO2 (stereo partly drawn) [Example 123, 3-(5-(difluoromethoxy)-2-fluorophenyl)-1-isopropyl-N-((R)-3-methyl-1,1-dioxidotetrahydrothiophen-3-yl)-1,5,6,7-tetrahydropyrano[3,2-c]pyrazole-6-carboxamide] | 24.3 | 
